Measured values as given in ChEMBL document CHEMBL1135172, “High-throughput synthesis optimization of sulfonamide NPY Y5 antagonists” (Bioorg Med Chem Lett, 2002).

Molecular target: T1, Neuropeptide Y receptor type 5 (Homo sapiens, UniProt Q15761)
T1 sequence (Q15761 whole entry): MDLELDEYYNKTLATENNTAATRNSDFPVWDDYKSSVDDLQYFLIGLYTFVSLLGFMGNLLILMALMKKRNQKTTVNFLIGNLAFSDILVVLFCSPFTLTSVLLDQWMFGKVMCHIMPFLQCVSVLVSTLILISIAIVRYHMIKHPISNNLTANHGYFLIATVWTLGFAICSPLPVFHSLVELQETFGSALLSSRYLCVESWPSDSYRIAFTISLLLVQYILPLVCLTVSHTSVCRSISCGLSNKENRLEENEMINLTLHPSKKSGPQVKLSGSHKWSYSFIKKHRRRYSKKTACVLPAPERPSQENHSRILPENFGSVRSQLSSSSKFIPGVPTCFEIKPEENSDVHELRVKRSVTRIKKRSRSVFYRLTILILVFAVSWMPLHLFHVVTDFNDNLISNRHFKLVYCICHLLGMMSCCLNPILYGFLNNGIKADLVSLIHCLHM
Assay: Displacement of [125I]PYY from human Neuropeptide Y receptor type 5 in COS-7 cell membranes

Ki [nM]	SMILES
426	Cc1ccc(S(=O)(=O)NC(Cc2ccccc2)C(=O)NCCCCCCNS(=O)(=O)c2cccc3ccccc23)cc1 (centres undefined)
231	O=C(NCCCCCCNS(=O)(=O)c1cccc2ccccc12)Nc1cccc2ccccc12
> 100000	O=C(NC[C@H]1CC[C@H](CNS(=O)(=O)c2ccc3ccccc3c2)CC1)C1CCc2ccccc2C1 (some centres undefined)
103	O=C(NC[C@H]1CC[C@H](CNS(=O)(=O)c2ccccc2[N+](=O)[O-])CC1)Nc1cccc2ccccc12
151	O=C(NCCCCCCNS(=O)(=O)c1ccccc1[N+](=O)[O-])Nc1cccc2ccccc12
412	O=C(NCCCCCCNS(=O)(=O)c1ccccc1[N+](=O)[O-])c1ccc2ccccc2c1
199	Cc1ccc(S(=O)(=O)NC(Cc2ccccc2)C(=O)NC[C@H]2CC[C@H](CNS(=O)(=O)c3ccc4ccccc4c3)CC2)cc1 (some centres undefined)
12	O=S(=O)(NC[C@H]1CC[C@H](CNCc2ccc3c(c2)OCCO3)CC1)c1cccc2ccccc12
724	O=C(NCCCCNS(=O)(=O)c1ccccc1[N+](=O)[O-])Nc1cccc2ccccc12
4120	O=C(NC[C@H]1CC[C@H](CNS(=O)(=O)c2cccc3ccccc23)CC1)C1CCc2ccccc2C1 (some centres undefined)
46	O=C(NCCCCCCNS(=O)(=O)c1ccccc1[N+](=O)[O-])C1CCc2ccccc2C1 (centres undefined)
724	O=C(NCCCCCCNS(=O)(=O)c1cccc2ccccc12)C1CCc2ccccc2C1 (centres undefined)
724	O=C(NC[C@H]1CC[C@H](CNS(=O)(=O)c2ccc3cccc([N+](=O)[O-])c3c2)CC1)C1CCc2ccccc2C1 (some centres undefined)
95	O=C(NC[C@H]1CC[C@H](CNS(=O)(=O)c2cccc3ccccc23)CC1)Nc1ccc(Cl)c(Cl)c1
